{"source": "patent US10912780B2", "about": "“Heterocyclic compounds useful as anti-bacterial agents and method for production thereof” (Bugworks Research, Inc., priority 2017, dated 2021)", "key": {"[1]": {"tested_on": "K. pneumoniae [ATCC13883]", "assay": "Neutropenic thigh infection model in rat", "assay_type": "in vivo", "details": "for Log 10 CFU/g thigh: individual animals", "description": "Example 15 was tested in rat thigh infection model following intravenous infusion of compound at doses of 100 mg/kg once, 30 mg/kg once daily over a period of 1 hr to assess its efficacy. This study was performed following all ethical practices as laid down in the guidelines for animal care (Registration number No. 1852/PO/Rc/S/16/CPCSEA). The study was approved by the Institutional Animals Ethics Committee (IAEC) of the test facility. The formulation used was 10% of L-ascorbic acid in fresh MilliQ water (w/v) with pH adjusted to ˜4.0 with 1N NaOH. On Day −4 (4 days prior to the desired date of infection), each rat was dosed with a single intra-peritoneal injection of cyclophosphamide equivalent to 150 mg/kg, and returned to its cage. On Day−1 (a day prior to infection) each rat received a dose equivalent to 100 mg/kg of Cyclophosphamide. This procedure ensured that animals will be neutropenic on day 0. […] The inoculum was serially diluted ten-fold in sterile CSDB broth and 0.05 ml of six dilutions were plated onto CSDA agar plates to determine the viable count (CFU/ml) of inoculum. All animals were divided into different groups as specified in the experimental design for each microorganism. All infections were conducted in a biological safety cabinet, with appropriate personnel protection. […] A gentle shaking/mixing of inoculum between two animals was followed for uniform distribution.\nTwo hours post infection, animals in groups 4, 5 and 6 were administered intravenously with example 15, as a constant rate infusion (duration of infusion 1 h), under Ketamine 60 mg/kg IP+Xylazine 10 mg/kg IP anesthesia, at a dose volume of 10 ml/kg, at the rate of 0.16 ml/min. The dose levels of Example 15 were 10, 30 and 100 mg/kg. […] The total duration of the study was 10 h.\nAnimals were sacrificed 10 hr post infection and thigh tissues were harvested to enumerate the bacterial CFU count. Thigh muscles were aseptically excised, weighed, and placed into 1 ml of sterile CSDB broth, and homogenized (Omni Tip (220 V hand held)). Serial ten-fold dilutions of the thigh homogenates were prepared in sterile lactose broth and 0.05 mL of four dilutions for each thigh was plated onto CSDA agar plates. Bacterial colonies were enumerated following overnight incubation at […]. Bacterial densities were estimated as Log 10 CFU/gram thigh. The Mean±SD Log 10 CFU/gram thigh was estimated in each group. Significant differences between group means and control will be analyzed by One way ANOVA, followed by a Dunnett's multiple comparison test, using Graphpad Prism at 95% confidence levels. A P value of <0.05 was considered as significant."}, "[2]": {"tested_on": "P. aeruginosa [ATCC27853]", "assay": "Neutropenic lung infection model in rat", "assay_type": "in vivo", "details": "for MEAN ± SD (Log 10 CFU/g Lung) / Mean Log 10CFU/g lung reduction (wrt 4 h PI control 5.78 Log10CFU/g lung) / Log 10 CFU/g Lung: neutropenic rat, 24 h post infection; for Log 10 CFU/g Lung: individual animals", "description": "The purpose of this study was to evaluate the efficacy of example 15 against P. aeruginosa [ATCC27853], following single dose intravenous infusion doses of 10, 30 and 100 mg/kg in a neutropenic lung infection model in rats\nPrior to the start of the infection process, all animals were divided into different groups. All grouped cages of animals were carried to a procedure room, close to a biological safety cabinet. All infections were conducted in a biological safety cabinet, with appropriate personnel protection. Animals were placed into an induction chamber and anaesthesia was induced by exposing the animals to 3-5% Isoflurane in an oxygen flow set at approximately (˜) 1 liter per minute (LPM). Once the animals were in a sufficiently deep plane of anaesthesia as monitored by pedal reflex, they were removed and infected (2). […] A gentle mixing of inoculum between two animals was followed for uniform distribution.\nThe IV formulation vehicle used for example 15 was 10% of L-ascorbic acid in fresh MilliQ water (w/v) with pH adjusted to ˜4.0 with 1N Sodium hydroxide solution (w/v), and the dose volume was 10 mL/kg. Meropenem was formulated in saline. […] The dose levels of the test Example 15 were 10, 30 and 100 mg/kg.\nAll the animals in groups were sacrificed at 24 h post infection, as specified in experimental design, by an overdose of CO2 in an appropriate exposure chamber. The group 1 animals were sacrificed at 4 hrs post infection. The euthanized animals were dipped into 70% ethanol for surface decontamination. Entire Lung was aseptically isolated, weighed and placed into 1 mL of sterile CSDB broth, and homogenized (Omni Tip (220 V hand held)). Serial ten-fold dilutions of the lungs homogenates were prepared in sterile CSD broth and 0.05 mL of four dilutions for each tissue was plated onto CSDA agar plates. Bacterial colonies were enumerated following overnight incubation at 37° C. Bacterial densities were estimated as Log10 CFU/g lung. The Mean±SD Log10 CFU/g lung was estimated in each group. Significant differences between group means and control were analyzed by one way ANOVA, followed by a Dunnett's multiple comparison test, using Graphpad Prism at 95% confidence levels."}, "[3]": {"tested_on": "K. pneumoniae [ATCC13883]", "assay": "Neutropenic thigh infection model in rat", "assay_type": "in vivo"}, "[4]": {"tested_on": "Acinetobacter baumannii ATCC 19606", "assay": "Minimum Inhibitory Concentration (MIC) in LB media;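 note: twofold compound dilutions from DMSO stocks in LB broth microplates, overnight incubation at 37 °C, growth read by absorbance at 600 nm, with DMSO and sterility controls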", "assay_type": "cell-based", "details": "Acinetobacter baumannii, ATCC19606", "method": "Bacterial cultures that are stored as glycerol stocks at −80° C. are sub cultured on LB agar plates to obtain isolated colonies. A single colony of each strain is cultured in LB broth. […] Test compounds are dissolved in dimethyl sulfoxide (DMSO) to a stock concentration of 4 mg/ml. A twofold dilution series of this DMSO stock is prepared in a 96 well V bottom microtitre plate from rows A to H. A 3 μL volume of these dilutions are transferred to a 96-well flat bottom microtitre assay plate. Controls to monitor the effects of DMSO and media sterility are included. Each well is inoculated with 150 μL of the above diluted culture. The plates are incubated at 37° C. overnight in a humidified incubator. The following morning, the plates are read using a Spectrophotometer at 600 nm wavelength."}, "E. coli topoisomerase IV": {"target": "E. coli topoisomerase IV (Escherichia coli, UniProt P0AFI2+P20083)", "sequence (P20083 whole entry)": "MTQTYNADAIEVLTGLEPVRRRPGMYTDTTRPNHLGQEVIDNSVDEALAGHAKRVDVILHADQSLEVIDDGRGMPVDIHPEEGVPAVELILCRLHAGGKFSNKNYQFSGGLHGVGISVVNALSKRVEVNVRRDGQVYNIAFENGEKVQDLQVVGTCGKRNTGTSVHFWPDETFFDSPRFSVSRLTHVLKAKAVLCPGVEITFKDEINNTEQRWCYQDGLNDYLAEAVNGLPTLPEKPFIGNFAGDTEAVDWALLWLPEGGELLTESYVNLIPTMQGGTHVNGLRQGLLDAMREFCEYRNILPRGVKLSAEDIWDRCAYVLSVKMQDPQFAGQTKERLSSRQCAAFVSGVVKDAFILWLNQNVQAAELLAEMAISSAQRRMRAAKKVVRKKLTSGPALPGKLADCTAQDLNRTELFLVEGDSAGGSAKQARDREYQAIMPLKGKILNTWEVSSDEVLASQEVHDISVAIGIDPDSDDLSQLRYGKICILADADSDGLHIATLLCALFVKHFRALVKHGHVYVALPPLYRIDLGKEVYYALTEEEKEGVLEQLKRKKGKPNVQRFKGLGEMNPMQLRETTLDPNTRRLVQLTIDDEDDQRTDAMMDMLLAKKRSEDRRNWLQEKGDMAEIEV", "sequence (P0AFI2 whole entry)": "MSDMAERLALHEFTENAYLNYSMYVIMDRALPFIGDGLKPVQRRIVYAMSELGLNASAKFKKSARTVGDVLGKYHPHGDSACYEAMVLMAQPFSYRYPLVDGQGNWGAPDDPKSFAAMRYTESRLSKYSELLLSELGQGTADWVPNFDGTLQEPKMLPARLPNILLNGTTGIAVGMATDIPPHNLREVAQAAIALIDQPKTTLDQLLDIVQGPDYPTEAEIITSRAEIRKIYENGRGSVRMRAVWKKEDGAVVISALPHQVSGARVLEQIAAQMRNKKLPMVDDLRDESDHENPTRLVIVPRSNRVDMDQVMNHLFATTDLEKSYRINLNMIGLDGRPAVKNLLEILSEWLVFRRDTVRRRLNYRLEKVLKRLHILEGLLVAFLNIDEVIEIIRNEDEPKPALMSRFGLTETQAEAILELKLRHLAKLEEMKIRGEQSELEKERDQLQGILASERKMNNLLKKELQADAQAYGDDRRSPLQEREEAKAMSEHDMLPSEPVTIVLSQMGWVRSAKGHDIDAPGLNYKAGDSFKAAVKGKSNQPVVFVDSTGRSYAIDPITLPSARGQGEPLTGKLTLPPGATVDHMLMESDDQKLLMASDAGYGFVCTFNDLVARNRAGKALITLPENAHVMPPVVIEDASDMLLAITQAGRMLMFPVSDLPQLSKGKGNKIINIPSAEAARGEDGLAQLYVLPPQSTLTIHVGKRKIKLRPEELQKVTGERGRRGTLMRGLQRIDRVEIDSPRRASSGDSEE", "assay": "biochemical", "details": "decatenation assay; read-out: E. coli Topo IV IC50"}, "[5]": {"tested_on": "K. pneumoniae clinical strains", "assay": "Antibacterial susceptibility studies (MIC50 and MIC90) with clinical strains, CLSI guidelines", "assay_type": "cell-based"}, "[6]": {"details": "10 mg/kg, i.v., 1 h infusion, neutropenic rat, 10 hr post infection"}, "[7]": {"details": "30 mg/kg, i.v., 1 h infusion, neutropenic rat, 10 hr post infection"}, "[8]": {"details": "3 mg/kg, i.v., 1 h infusion, neutropenic rat, 10 hr post infection"}}, "note": "“And” between values parts separate entries of the source, which are not always exact repeats. Equal entries are not always repeated.", "data": [{"smiles": "Cn1c(=O)ccc2ccc(F)c(CCNC[C@H]3CN(c4cnc5c(n4)NC(=O)CO5)C(=O)O3)c21", "note": "[Example 15, (S)-6-(5-(((2-(7-fluoro-1-methyl-2-oxo-1,2-dihydroquinolin-8-yl)ethyl)amino)methyl)-2-oxooxazolidin-3-yl)-2H-pyrazino[2,3-b][1,4]oxazin-3(4H)-one]", "values": [{"measurement": "MEAN ± SD (Log 10 CFU/g thigh)", "setting": "[1]; [6]", "value": "2.91 ± 0.24", "unit": "Log 10 CFU/g thigh"}, {"measurement": "MEAN ± SD (Log 10 CFU/g thigh)", "setting": "[1]; [7]", "value": "2.22 ± 0.50", "unit": "Log 10 CFU/g thigh"}, {"measurement": "Mean Log10CFU/g thigh reduction (wrt 2 h PI control: 4.72 Log10CFU/g thigh)", "setting": "[1]; [7]", "value": 2.50, "unit": "Log10CFU/g thigh"}, {"measurement": "Log 10 CFU/g thigh", "setting": "[1]; [6]", "value": "3.18 Log 10 CFU/g thigh and 2.85 Log 10 CFU/g thigh and 2.71 Log 10 CFU/g thigh"}, {"measurement": "Log 10 CFU/g thigh", "setting": "[1]; [7]", "value": "1.92 Log 10 CFU/g thigh and 1.94 Log 10 CFU/g thigh and 2.8 Log 10 CFU/g thigh"}, {"measurement": "efficacy with respect to 2 h Post Infection (PI) control (in words)", "setting": "[1]; rat thigh model, 10 and 30 mg/kg", "value": "significant dose dependent efficacy"}, {"measurement": "efficacy versus standard drug (in words)", "setting": "[1]; rat thigh model, similar dose (10 mg/kg)", "value": "comparable to standard drug ciprofloxacin"}, {"measurement": "MEAN ± SD (Log 10 CFU/g Lung)", "setting": "[2]; 10 mg/kg, i.v. 1 h infusion", "value": "6.63 ± 0.15", "unit": "Log 10 CFU/g Lung"}, {"measurement": "Mean Log 10CFU/g lung reduction (wrt 4 h PI control 5.78 Log10CFU/g lung)", "setting": "[2]; 10 mg/kg, i.v. 1 h infusion", "value": "−0.85", "unit": "Log10CFU/g lung"}, {"measurement": "MEAN ± SD (Log 10 CFU/g Lung)", "setting": "[2]; 30 mg/kg, i.v., 1 h infusion", "value": "4.74 ± 0.08", "unit": "Log 10 CFU/g Lung"}, {"measurement": "Mean Log 10CFU/g lung reduction (wrt 4 h PI control 5.78 Log10CFU/g lung)", "setting": "[2]; 30 mg/kg, i.v., 1 h infusion", "value": 1.04, "unit": "Log10CFU/g lung"}, {"measurement": "MEAN ± SD (Log 10 CFU/g Lung)", "setting": "[2]; 100 mg/kg, i.v., 1 h infusion", "value": "4.76 ± 0.2", "unit": "Log 10 CFU/g Lung"}, {"measurement": "Mean Log 10CFU/g lung reduction (wrt 4 h PI control 5.78 Log10CFU/g lung)", "setting": "[2]; 100 mg/kg, i.v., 1 h infusion", "value": 1.02, "unit": "Log10CFU/g lung"}, {"measurement": "Log 10 CFU/g Lung", "setting": "[2]; 10 mg/g, i.v. 1 h infusion", "value": "6.68 Log 10 CFU/g Lung and 6.75 Log 10 CFU/g Lung and 6.47 Log 10 CFU/g Lung"}, {"measurement": "Log 10 CFU/g Lung", "setting": "[2]; 30 mg/kg, i.v., 1 h infusion", "value": "4.79 Log 10 CFU/g Lung and 4.65 Log 10 CFU/g Lung and 4.78 Log 10 CFU/g Lung"}, {"measurement": "Log 10 CFU/g Lung", "setting": "[2]; 100 mg/kg, i.v., 1 h infusion", "value": "4.84 Log 10 CFU/g Lung and 4.53 Log 10 CFU/g Lung and 4.90 Log 10 CFU/g Lung"}, {"measurement": "efficacy compared to the early infection control (in words)", "setting": "[2]; rat lung model, 10 mg/kg", "value": "bacteriostatic"}, {"measurement": "efficacy with respect to early infection control (in words)", "setting": "[2]; rat lung model, 30 mg/kg and 100 mg/kg", "value": "significant efficacy"}, {"measurement": "efficacy versus standard drug (in words)", "setting": "[2]; rat lung model, similar dose (30 mg/kg)", "value": "comparable to standard drug meropenem"}, {"measurement": "MEAN ± SD (Log 10 CFU/g thigh)", "setting": "[3]; [8]", "value": "4.10 ± 0.46", "unit": "Log 10 CFU/g thigh"}, {"measurement": "Mean Log10CFU/g thigh reduction (wrt 2 h PI control: 4.72 Log10CFU/g thigh)", "setting": "[3]; [8]", "value": 0.62, "unit": "Log10CFU/g thigh"}, {"measurement": "Mean Log10CFU/g thigh reduction (wrt 2 h PI control: 4.72 Log10CFU/g thigh)", "setting": "[3]; [6]", "value": 1.81, "unit": "Log10CFU/g thigh"}, {"measurement": "Log 10 CFU/g thigh", "setting": "[3]; individual animals, 3 mg/kg, i.v., 1 h infusion, neutropenic rat, 10 hr post infection", "value": "4.1 Log 10 CFU/g thigh and 4.56 Log 10 CFU/g thigh and 3.65 Log 10 CFU/g thigh"}, {"measurement": "efficacy compared to the 2 h PI control (in words)", "setting": "[3]; rat thigh model, 3 mg/kg", "value": "bacteriostatic"}, {"measurement": "MIC", "setting": "[4]", "value": 0.06, "unit": "µg/mL"}, {"measurement": "IC50", "setting": "E. coli topoisomerase IV", "value": 10, "unit": "nM"}, {"measurement": "MIC ATCC13883", "setting": "[5]; K. pneumoniae reference strain ATCC13883, no unit in this line", "value": 0.03, "unit": "µg/mL"}, {"measurement": "MIC50", "setting": "[5]; Klebsiella pneumoniae", "value": 0.5, "unit": "µg/mL"}, {"measurement": "MIC90", "setting": "[5]; Klebsiella pneumoniae", "value": 1, "unit": "µg/mL"}, {"measurement": "Minimum", "setting": "[5]; lowest MIC among K. pneumoniae clinical strains (211 strains; Example 15: 176), no unit in this line", "value": 0.06}]}]}
